The results in this text go back to US10654896B2, “FoxP3-binding peptides and uses thereof” (FUNDACIÓN PARA LA INVESTIGACIÓN MÉDICA APLICADA, priority 2016, dated 2020).

Where a SMILES comes first, the peptide text is derived from it. [ ]: non-standard residue; d: D form.

The first assay deals with murine Treg (CD25+ T cells). Briefly: In vitro Treg suppression assay ([3H]-thymidine, anti-CD3). Conditions: peptide 100 μM. Type of assay: cell-based, BALB/c mice. On the procedure: Spleen was harvested from BALB/c mice (Harlan Laboratories) and homogenized with a 1-ml syringe through a 100-μm cell strainer into a 50-ml conical tube and rinsed two times with PBS (Calcium free) to recover all cells. Cell homogenate was centrifuged at 300×g for 10 min and resuspended homogenate in 1 ml ACK Lysis buffer solution per spleen. Gently swirled for 2 min and then the reaction was quenched by adding 12 ml of PBS.
Cells were centrifuged at 300×g for 10 min and purification of CD25− and CD25+ cells was carried out using magnetic beads (Miltenyi, CD25 microbead kit MOUSE, Ref 130-091-072)), following manufacturer's instructions. After labelling the cells, they were purified using Automacs-Pro device following manufacturer's instructions. Negative fraction corresponded to CD25− cells, which was used as effector Tconv cells. Positive fraction corresponded to CD25+ T cells that was used as Treg cells. Flow cytometry using anti-CD25-APC labeled and anti-CD4-FITC labelled antibodies was used to confirm the purity of isolated cells. Foxp3 expression was analyzed using the anti-Foxp3 staining antibody labelled with APC according to manufacturer's instructions (eBioscience). Purified cells were washed, resuspended in culture medium and diluted in T-cell culture medium (RPMI 1640, supplemented with 10% Fetal bovine serum and antibiotics) at a concentration of 2×10^5/ml (for Tregs) and 2×10^6/ml (for Tconv), for the assay (See below)
The first in vitro assays to measure regulatory T-cell (Treg) function were described by two groups over a decade ago. […] With this knowledge, it was shown that CD4+CD25+ T cells could potently suppress the proliferation of activated CD4+CD25− and CD8+ T cells when the populations were cocultured in vitro. The following protocol describes a basic type of in vitro Treg suppression assay where Treg function is measured in the absence of antigen-presenting cells (APCs). In this protocol, activation is mediated by anti-CD3 antibodies and includes only two cell types, the target Tconv and Tregs. In this protocol, the experiment is setup in a 96-well round-bottom plate in a total volume of 200 μl. All reagents are prepared at four times their desired final concentration and added to assay in 50 μl such that the total volume is 200 μl, thus obtaining the desired final concentration of reactives. Purified Tregs and Tconv prepared as described above were diluted and adjusted in T-cell culture medium to 2×10^5/ml and 2×10^6/ml, respectively. In round-bottom 96-well plate, Tregs and Tconv were added in 50 μl of culture media each (RPMI 1640, supplemented with 10% Fetal bovine serum, and antibiotics). Anti-CD3 antibody was added in 50 μl (final concentration will be 2.5 μg/ml) as a stimulus to induce T cell proliferation. 50 μL of each one of the peptides to be tested were added in the corresponding wells at a concentration of 100 μM and those which provided the best results were tested again at lower concentrations to determine the IC50 value. The final volume was 200 μl in all wells. Tconv alone, Tconv plus anti-CD3, Tconv+anti-CD3+ Treg or Tconv+anti-CD3+Treg+peptides were tested by quadruplicate. Tconv plus anti-CD3 with no Treg was used to determine maximum proliferation of Tconv whereas Tconv+anti-CD3+ Treg was used to determine Treg inhibition. Plates were incubated at 37° C., 5% CO2 for 72 h and then pulsed with 0.1 μCi [^3H]-thymidine (in 25 μl of culture medium per well). After 8 h of incubation, cell cultures were harvested with a cell harvester (Perkin Elmer) and using unifilter plates. Plates were then dried at 50° C., and scintillation reagent (25 μl)(Microscint, Perkin Elmer) was added to each well. Counts per minute (cpm) were determined with a direct beta counter (TopCount, Perkin Elmer).
The results of in vitro Treg suppression assays are most commonly reported as cpm when [^3H]-thymidine is incorporated into proliferating cells. […]
In the case of H-RDFQSFRKMWPFFAM-OH [compound 1], the “Treg inhibition - % inhibition (100 μM)” value is on record as 115.6%.

The same assay, now with this note: read-out: IC50 (peptide concentration able to inhibit 50% of Treg activity).
For the molecule `CSCC[C@H](NC(=O)[C@H](C)NC(=O)[C@H](Cc1ccccc1)NC(=O)[C@H](Cc1ccccc1)NC(=O)[C@@H]1CCCN1C(=O)[C@H](Cc1c[nH]c2ccccc12)NC(=O)[C@H](CCSC)NC(=O)[C@H](CCCCN)NC(=O)[C@H](CCCNC(=N)N)NC(=O)[C@H](Cc1ccccc1)NC(=O)[C@H](CO)NC(=O)[C@H](CCC(N)=O)NC(=O)[C@H](Cc1ccccc1)NC(=O)[C@@H](CC(=O)O)NC(=O)[C@@H](N)CCCNC(=N)N)C(=O)O` [compound 3] (H-R[dD]FQSFRKMWPFFAM-OH), the IC50 was found to be 27.2 µM. For the molecule `CSCC[C@H](NC(=O)[C@H](C)NC(=O)[C@H](Cc1ccccc1)NC(=O)[C@H](Cc1ccccc1)NC(=O)[C@@H]1CCCN1C(=O)[C@H](Cc1c[nH]c2ccccc12)NC(=O)[C@H](CCSC)NC(=O)[C@H](CCCCN)NC(=O)[C@H](CCCNC(=N)N)NC(=O)[C@H](Cc1ccccc1)NC(=O)[C@H](CO)NC(=O)[C@H](CCC(N)=O)NC(=O)[C@H](Cc1ccccc1)NC(=O)[C@H](C)NC(=O)[C@H](N)CCCNC(=N)N)C(=O)O` [compound 46] (H-[dR]AFQSFRKMWPFFAM-OH; N-terminus and C-terminus assumed), the IC50 amounted to 12.5 µM.

Regarding `CSCC[C@H](NC(=O)[C@H](CCCCN)NC(=O)[C@H](CCCNC(=N)N)NC(=O)[C@H](Cc1ccccc1)NC(=O)[C@H](CO)NC(=O)[C@H](CCC(N)=O)NC(=O)[C@H](Cc1ccccc1)NC(=O)[C@H](C)NC(=O)[C@@H](N)CCCNC(=N)N)C(=O)N[C@@H](Cc1c[nH]c2ccccc12)C(=O)N1CCC[C@H]1C(=O)N[C@@H](Cc1ccccc1)C(=O)N[C@@H](Cc1ccccc1)C(=O)N[C@@H](C)C(=O)N[C@H](CCSC)C(=O)O` [compound 47] (H-RAFQSFRKMWPFFA[dM]-OH; N-terminus and C-terminus assumed), the IC50 is 35 µM. Same read-out and setting: for `CSCC[C@H](NC(=O)[C@H](CCCCN)NC(=O)[C@H](CCCNC(=N)N)NC(=O)[C@H](Cc1ccccc1)NC(=O)[C@H](CO)NC(=O)[C@H](CCC(N)=O)NC(=O)[C@H](Cc1ccccc1)NC(=O)[C@H](C)NC(=O)[C@H](N)CCCNC(=N)N)C(=O)N[C@@H](Cc1c[nH]c2ccccc12)C(=O)N1CCC[C@H]1C(=O)N[C@@H](Cc1ccccc1)C(=O)N[C@@H](Cc1ccccc1)C(=O)N[C@@H](C)C(=O)N[C@H](CCSC)C(=O)O` [compound 48] (H-[dR]AFQSFRKMWPFFA[dM]-OH; N-terminus and C-terminus assumed) the value was 20 µM; for `CSCC[C@@H]1NC(=O)[C@H](C)NC(=O)[C@H](Cc2ccccc2)NC(=O)[C@H](Cc2ccccc2)NC(=O)[C@@H]2CCCN2C(=O)[C@H](Cc2c[nH]c3ccccc23)NC(=O)[C@H](CCSC)NC(=O)[C@H](CCCCN)NC(=O)[C@H](CCCNC(=N)N)NC(=O)[C@H](Cc2ccccc2)NC(=O)[C@H](C)NC(=O)[C@H](CCC(N)=O)NC(=O)[C@H](Cc2ccccc2)NC(=O)[C@H](C)NC(=O)[C@H](CCCNC(=N)N)NC1=O` [compound 50] (cyclo(RAFQAFRKMWPFFAM)), 0.8 µM; for H-RDFQSFRKMWPFFAM-OH [compound 1], 38.3 µM.
